Test results published in patent US20060057636A1 (priority 2002, published 2006).

Assays:
[1] = system: Balb/C mice; settings: in vivo, sc
[2] = system: NMRI mice; settings: mouse, in vivo
[3] = system: recombinant bovine PrP; settings: in vivo

Sequence	mean end-point titre, mouse no. 1 [1]	mean end-point titre, mouse no. 2 [1]	mean end-point titre, mouse no. 3 [1]	mean end-point titre, mouse no. 4 [1]	titres in NMRI mice compared with Balb/C [2]	production of high-titered, PrP-reactive antibodies [3]
CGGRESQAYYQRGAS [PrP peptide 4]	4.500	13.500	13.500	40.500	the same or even higher titres	
CYYRPVDQYS [PrP peptide 6]	13.500	500	13.500	1.500	the same or even higher titres	
CTQYQRESQAYYQRG [PrP peptide 7]	121.500	13.4500	40.500	40.500		
CGQGGTHGQWNKP [PrP peptide 1]	40.500	40.500	40.500	40.500	the same or even higher titres	
CGSDYEDRY [PrP peptide 5]	121.500	40.500	40.500	40.500		all groups except the peptide 5 group
CGGLGGYMLGSAMSRPLIH [PrP peptide 3]	13.5000	13.500	13.500	40.500		
CGQWNKPSKPKTN [PrP peptide 2]	121.500	40.500	13.500	13.500		
